Values quoted from earlier work in EP0721734A1, “PESTICIDE COMPOSITION” (NIPPON SODA CO., LTD., priority 1993, dated 1995).

Row | SMILES | water solubility
1 | CCN(Cc1ccc(Cl)nc1)C(=C[N+](=O)[O-])NC [2-methylamino-2-[N-ethyl-(2-chloro-5-pyridyl)methylamino]-nitoroethylene] | up to 600 g/l
2 | CCSCc1ccccc1OC(=O)NC [Ethiophencalb] | 1,900 ppm
3 | CCc1cccc(C)c1N(C(=O)CCl)C(C)COC (stereo not drawn) [Metolachlor] | 530 ppm
4 | CCCC(Cn1cncn1)c1ccc(Cl)cc1Cl (stereo not drawn) [Penconasole] | 70 ppm
5 | CCO[PH](=O)[O-].CCO[PH](=O)[O-].CCO[PH](=O)[O-].[Al+3] [Phosethyl-Alminium] | 120 g/L
6 | CC(=NC#N)N(C)Cc1ccc(Cl)nc1 [active substance-1, N^1-[(2-chloro-5-pyridyl)methyl]-N^2-cyano-N^1-methylacetamidine] | 3,700 ppm
